Measured values taken from publication PMC4197335, “Cancer-Selective Targeting of the NF-κB Survival Pathway with GADD45β/MKK7 Inhibitors” (Cancer Cell, 2014).

Columns and labels:
[1] = system: KMS-12 MM cells; test: [3H]thymidine incorporation; type: cell-based; conditions: Homo sapiens, single agent at 48 hr
Method: (§1) Additional details are provided in Supplemental Experimental Procedures.
Cell Proliferation, Cell Death, and Apoptosis Assays
W allac Trilux Microbeta 3 β -counter (Perk inElmer). Values were expressed as the percentage of the […]
respective untreated cultures. […]
splitting them as necessary during the assays. […]
previously (Riccardi and Nicoletti, 2006).
Cells were then f ixed in 70% ice- cold ethanol for 16 hr, washed in PBS, and treated with ribonuclease A (50 μg/mL) f or 30 min at room temperature. Samples were f inally stained with PI (50 µg/mL) in 0.1% sodium citrate buffer for 2 to 4 hr at 4°C in the dark , and data were acquired using a FACSCalibur automated system (Becton Dick inson) and analyzed with FlowJo.
The viability of primary CD138 + cells f rom patients was assessed using trypan blue exclusion assays (Mauro et al., 2011; Arnold et al., 2008), perf ormed as described above. Cells were seeded […]
Cell viability in the treated cultures was expressed as the percentage of cell survival relative to the survival observed in the respective untreated cultures, represented as 100%. […]
The activities of DTP3 and bortezomib in the U266 and KMS-12 myeloma cell lines, both as single agents and in combination, were determined using [3H]thymidine incorporation assays, performed as described above in “Cell Prolif eration, Cell Death, and Apoptosis Assays”. […]

[2] = system: CD138+ cells from MM patients; test: cells; conditions: Homo sapiens, 48 h, read-out: IC50 (MM; PCs (n = 8))
Excerpt: as §1
(§2) automated system (Becton Dick inson) and analyzed with FlowJo.

[3] = system: CD138+ cells from WM patients; test: cells; conditions: Homo sapiens, 48 h, read-out: IC50 (WM; PCs (n= 2))
Excerpt: as §1, §2

[4] = system: human BMSCs; test: cells; conditions: Homo sapiens, BMSC, 48 h, read-out: IC50 (normal; BMSCs)
Excerpt: as §1, §2

[5] = system: human PBMCs; test: cells; conditions: Homo sapiens, PBMC, 48 h, read-out: IC50 (normal; PBMCs)
Excerpt: as §1, §2

[6] = system: human mesenchymal stem cells (MSCs); test: cells; conditions: Homo sapiens, Mesenchymal stem cells, 48 h, read-out: IC50 (normal; MCSs)
Excerpt: as §1, §2

[7] = system: mouse lymph node (LN) cells; test: cells; conditions: Mus musculus, 48 h, read-out: IC50 (normal; lymph node cells)
Excerpt: as §1, §2

[8] = system: mouse splenocytes; test: cells; conditions: Mus musculus, Splenocyte, 48 h, read-out: IC50 (normal; splenocytes)
Excerpt: as §1, §2

[9] = system: U266 MM cells; test: cells; conditions: Homo sapiens, U-266, 48 h

## CC(C)C[C@H](NC(=O)[C@H](Cc1ccccc1)NC(=O)c1cnccn1)B(O)O [Bortezomib, reference compound]
[1]
  IC50: 6 nM
[2]
  IC50: 8.7 ± 2.1 nM
[3]
  IC50: 3.38 ± 2 nM
[4]
  IC50: 80 nM
[5]
  IC50: 63.1 nM
[6]
  IC50: 79.4 nM
[7]
  IC50: 91.1 nM
[8]
  IC50: 80 nM
[9]
  IC50: 6 nM
